Measured values as given in US10519099B2, “Cystobactamides” (priority 2014, dated 2019).
Converted amounts (≈) assume the structure as drawn. Where two headings read alike, the source gives them in different places.

Assays:
[1] = tested on: Acinetobacter baumannii DSM-30008; assay: MIC microdilution, A. baumannii DSM-30008; format: cell-based; conditions: Acinetobacter baumannii, DSM30008
Description: (§1) Indicator strains used in susceptibility assays were either part of our strain collection or purchased from the German Collection of Microorgansims and Cell Cultures (DSMZ) or from the American Type Culture Collection (ATCC). E. coli strain WT and corresponding E. coli mutants were kindly provided by Prof. Dr. P. Heisig, Pharmaceutical Biology and Microbiology, University of Hamburg. E. coli strains JW0401-1 (WT) and Δtsx were obtained from the CGSC collection.
(§2) MIC values were determined in standardized microdilution assays. Overnight cultures were diluted in the appropriate growth medium to achieve an inoculum of 10^4-10^6 cfu/mL. Yeasts were grown in Myc medium (1% phytone peptone, 1% glucose, 50 mM HEPES, pH 7.0), S. pneumonia and Enterococcus spp. in tryptic soy broth (TSB: 1.7% peptone casein, 0.3% peptone soymeal, 0.25% glucose, 0.5% NaCl, 0.25% K2HPO4; pH 7.3); M. smegmatis in Middlebrook 7H9 medium supplemented with 10% Middlebrook ADC enrichment and 2 ml/I glycerol). All other listed bacteria were grown in Müller-Hinton broth (0.2% beef infusion solids, 1.75% casein hydrolysate, 0.15% starch, pH 7.4). Cystobactamides and reference drugs were added directly to the cultures in sterile 96-well plates as duplicates and serial dilutions were prepared. Microorganisms were grown on a microplate shaker (750 rpm, 30-37° C., 18-48 h), except S. pneumonia, which was grown at non-shaking conditions (37° C., 5% CO2, 18 h). Growth inhibition was assessed by visual inspection and the MIC was defined as the lowest concentration of compound that inhibited visible growth.

[2] = tested on: Citrobacter freundii DSM-30039; assay: MIC microdilution, C. freundii DSM-30039; format: cell-based; conditions: Citrobacter freundii, DSM30039
Description: as §1, §2

E. coli WT = assay: MIC microdilution, E. coli WT; format: cell-based, Escherichia coli; conditions: Escherichia coli
Description: as §1, §2

[3] = tested on: E. coli WT-3 [gyrA(S83L, D87G)]; assay: MIC microdilution, E. coli WT-3 [gyrA(S83L, D87G)]; format: cell-based, Escherichia coli; conditions: Escherichia coli
Description: as §1, §2

[4] = tested on: P. aeruginosa DSM-24600 (ESBL); assay: MIC microdilution, P. aeruginosa DSM-24600 (ESBL); format: cell-based, Pseudomonas aeruginosa; conditions: Pseudomonas aeruginosa, DSM24600
Description: as §1, §2

[5] = tested on: Proteus vulgaris DSM-2140; assay: MIC microdilution, P. vulgaris DSM-2140; format: cell-based; conditions: Proteus vulgaris, DSM2140
Description: as §1, §2

[6] = tested on: Burkholderia cenocepacia DSM-16553; assay: MIC microdilution, Burkholderia cenocepacia DSM-16553; format: cell-based; conditions: DSM16553, read-out: MIC Burkholderia cenocepacia DSM-16553
Description: as §1
as §2, with “Cystobactamides and reference drugs were added directly to the cultures in sterile 96-well plates as duplicates and serial dilutions were prepared. Microorganisms were grown on a microplate shaker (750 rpm, 30-37° C., 18-48 h), except S. pneumonia, which was grown at non-shaking conditions (37° C., 5% CO2, 18 h).” left out

[7] = tested on: Escherichia coli WT-3.2 [gyrA(D87G)]; assay: MIC microdilution, E. coli WT-3.2 [gyrA(D87G)]; format: cell-based; conditions: read-out: MIC Escherichia coli WT-3.2 [gyrA(D87G)]
Description: as §1
as §2, with “Cystobactamides and reference drugs were added directly to the cultures in sterile 96-well plates as duplicates and serial dilutions were prepared. Microorganisms were grown on a microplate shaker (750 rpm, 30-37° C., 18-48 h), except S. pneumonia, which was grown at non-shaking conditions (37° C., 5% CO2, 18 h).” left out

[8] = tested on: Escherichia coli MI-4 [gyrA(S83L), parC(S80I)]; assay: MIC microdilution, E. coli MI-4 [gyrA(S83L), parC(S80I)]; format: cell-based; conditions: read-out: MIC Escherichia coli MI-4 [gyrA(S83L), parC(S80I)]
Description: as §1
as §2, with “Cystobactamides and reference drugs were added directly to the cultures in sterile 96-well plates as duplicates and serial dilutions were prepared. Microorganisms were grown on a microplate shaker (750 rpm, 30-37° C., 18-48 h), except S. pneumonia, which was grown at non-shaking conditions (37° C., 5% CO2, 18 h).” left out

[9] = tested on: Escherichia coli DSM-12242 (NAL^R); assay: MIC microdilution, E. coli DSM-12242 (NAL^R); format: cell-based; conditions: DSM12242, read-out: MIC Escherichia coli DSM-12242 (NAL^R)
Description: as §1
as §2, with “Cystobactamides and reference drugs were added directly to the cultures in sterile 96-well plates as duplicates and serial dilutions were prepared. Microorganisms were grown on a microplate shaker (750 rpm, 30-37° C., 18-48 h), except S. pneumonia, which was grown at non-shaking conditions (37° C., 5% CO2, 18 h).” left out

[10] = tested on: Escherichia coli ATCC35218; assay: MIC microdilution, E. coli ATCC35218; format: cell-based; conditions: ATCC35218, read-out: MIC Escherichia coli ATCC35218
Description: as §1
as §2, with “Cystobactamides and reference drugs were added directly to the cultures in sterile 96-well plates as duplicates and serial dilutions were prepared. Microorganisms were grown on a microplate shaker (750 rpm, 30-37° C., 18-48 h), except S. pneumonia, which was grown at non-shaking conditions (37° C., 5% CO2, 18 h).” left out

[11] = tested on: Escherichia coli ATCC25922; assay: MIC microdilution, E. coli ATCC25922; format: cell-based; conditions: ATCC25922, read-out: MIC Escherichia coli ATCC25922
Description: as §1
as §2, with “Cystobactamides and reference drugs were added directly to the cultures in sterile 96-well plates as duplicates and serial dilutions were prepared. Microorganisms were grown on a microplate shaker (750 rpm, 30-37° C., 18-48 h), except S. pneumonia, which was grown at non-shaking conditions (37° C., 5% CO2, 18 h).” left out

[12] = tested on: Klebsiella pneumoniae DSM-30104; assay: MIC microdilution, Klebsiella pneumoniae DSM-30104; format: cell-based; conditions: DSM30104, read-out: MIC Klebsiella pneumoniae DSM-30104
Description: as §1
as §2, with “Cystobactamides and reference drugs were added directly to the cultures in sterile 96-well plates as duplicates and serial dilutions were prepared. Microorganisms were grown on a microplate shaker (750 rpm, 30-37° C., 18-48 h), except S. pneumonia, which was grown at non-shaking conditions (37° C., 5% CO2, 18 h).” left out

[13] = tested on: Pseudomonas aeruginosa PA14; assay: MIC microdilution, P. aeruginosa PA14; format: cell-based; conditions: Pseudomonas aeruginosa, PA14, read-out: MIC Pseudomonas aeruginosa PA14
Description: as §1, §2

[14] = tested on: Pseudomonas aeruginosa DSM-24599; assay: MIC microdilution, P. aeruginosa DSM-24599; format: cell-based; conditions: Pseudomonas aeruginosa, DSM24599, read-out: MIC Pseudomonas aeruginosa DSM-24599
Description: as §1, §2

[15] = tested on: Pseudomonas aeruginosa DSM-46316 (ESBL); assay: MIC microdilution, P. aeruginosa DSM-46316 (ESBL); format: cell-based; conditions: Pseudomonas aeruginosa, DSM46316, read-out: MIC Pseudomonas aeruginosa DSM-46316 (ESBL)
Description: as §1, §2

[16] = tested on: Serratia marcescens DSM-30121; assay: MIC microdilution, Serratia marcescens DSM-30121; format: cell-based; conditions: Serratia marcescens, DSM30121, read-out: MIC Serratia marcescens DSM-30121
Description: as §1, §2

Bacillus subtilis DSM-10 = assay: MIC microdilution, Bacillus subtilis DSM-10; format: cell-based; conditions: DSM10, read-out: MIC Bacillus subtilis DSM-10
Description: as §1
as §2, with “Cystobactamides and reference drugs were added directly to the cultures in sterile 96-well plates as duplicates and serial dilutions were prepared. Microorganisms were grown on a microplate shaker (750 rpm, 30-37° C., 18-48 h), except S. pneumonia, which was grown at non-shaking conditions (37° C., 5% CO2, 18 h).” left out

[17] = tested on: Enterococcus faecium DSM-20477; assay: MIC microdilution, Enterococcus faecium DSM-20477; format: cell-based; conditions: Enterococcus faecium, DSM20477, read-out: MIC Enterococcus faecium DSM-20477
Description: as §1, §2

[18] = tested on: Micrococcus luteus DSM-1790; assay: MIC microdilution, Micrococcus luteus DSM-1790; format: cell-based; conditions: DSM1790, read-out: MIC Micrococcus luteus DSM-1790
Description: as §1
as §2, with “Cystobactamides and reference drugs were added directly to the cultures in sterile 96-well plates as duplicates and serial dilutions were prepared. Microorganisms were grown on a microplate shaker (750 rpm, 30-37° C., 18-48 h), except S. pneumonia, which was grown at non-shaking conditions (37° C., 5% CO2, 18 h).” left out

[19] = tested on: Staphylococcus epidermidis DSM-28765; assay: MIC microdilution, Staphylococcus epidermidis DSM-28765; format: cell-based; conditions: Staphylococcus epidermidis, DSM28765, read-out: MIC Staphylococcus epidermidis DSM-28765
Description: as §1, §2

[20] = tested on: Streptococcus pneumoniae DSM-20566; assay: MIC microdilution, Streptococcus pneumoniae DSM-20566; format: cell-based; conditions: DSM20566, read-out: MIC Streptococcus pneumoniae DSM-20566
Description: as §1
as §2, with “Cystobactamides and reference drugs were added directly to the cultures in sterile 96-well plates as duplicates and serial dilutions were prepared. Microorganisms were grown on a microplate shaker (750 rpm, 30-37° C., 18-48 h), except S. pneumonia, which was grown at non-shaking conditions (37° C., 5% CO2, 18 h).” left out

Pichia anomala DSM-6766 = assay: MIC microdilution, Pichia anomala DSM-6766; format: cell-based; conditions: Hansenula anomala, DSM6766, read-out: MIC Pichia anomala DSM-6766
Description: as §1
as §2, with “Cystobactamides and reference drugs were added directly to the cultures in sterile 96-well plates as duplicates and serial dilutions were prepared. Microorganisms were grown on a microplate shaker (750 rpm, 30-37° C., 18-48 h), except S. pneumonia, which was grown at non-shaking conditions (37° C., 5% CO2, 18 h).” left out

SMILES: COC(C(N)=O)C(NC(=O)c1ccc(NC(=O)c2ccc([N+](=O)[O-])cc2)cc1)C(=O)Nc1ccc(C(=O)Nc2ccc(C(=O)Nc3ccc(C(=O)O)cc3OC(C)C)c(O)c2OC(C)C)cc1 (centres unmarked) [Cys 919-2]
- MIC ([1]; Gram-negative set, read-out: MIC A. baumannii DSM-30008): 8 µg/mL (≈ 8.7 µM)
- MIC ([1]; larger panel, read-out: MIC Acinetobacter baumannii DSM-30008): 8 µg/mL (≈ 8.7 µM)
- MIC ([2]; Gram-negative set, read-out: MIC C. freundii DSM-30039): 1 µg/mL (≈ 1.09 µM)
- MIC ([2]; larger panel, read-out: MIC Citrobacter freundii DSM-30039): 1 µg/mL (≈ 1.09 µM)
- MIC (E. coli WT; Gram-negative set, read-out: MIC E. coli WT): 0.5 µg/mL (≈ 0.544 µM)
- MIC (E. coli WT; larger panel, read-out: MIC Escherichia coli WT): 0.5 µg/mL (≈ 0.544 µM)
- MIC ([3]; read-out: MIC E. coli WT-3 [gyrA(S83L, D87G)]): 64 µg/mL (≈ 69.6 µM)
- MIC ([3]; read-out: MIC Escherichia coli WT-3 [gyrA(S83L, D87G)]): 16 to 32 µg/mL (≈ 17.4 to 34.8 µM)
- MIC ([4]; Gram-negative set, read-out: MIC P. aeruginosa DSM-24600 (ESBL)): 64 µg/mL (≈ 69.6 µM)
- MIC ([4]; larger panel, read-out: MIC Pseudomonas aeruginosa DSM-24600 (ESBL)): 64 µg/mL (≈ 69.6 µM)
- MIC ([5]; Gram-negative set, read-out: MIC P. vulgaris DSM-2140): 4 µg/mL (≈ 4.35 µM)
- MIC ([5]; larger panel, read-out: MIC Proteus vulgaris DSM-2140): 4 µg/mL (≈ 4.35 µM)
- MIC [6]: > 64 µg/mL
- MIC [7]: 4 µg/mL (≈ 4.35 µM)
- MIC [8]: 2 to 4 µg/mL (≈ 2.17 to 4.35 µM)
- MIC [9]: 1 to 2 µg/mL (≈ 1.09 to 2.17 µM)
- MIC [10]: 1 µg/mL (≈ 1.09 µM)
- MIC [11]: 0.5 µg/mL (≈ 0.544 µM)
- MIC [12]: > 64 µg/mL
- MIC [13]: > 64 µg/mL
- MIC [14]: > 64 µg/mL
- MIC [15]: > 64 µg/mL
- MIC [16]: > 64 µg/mL
- MIC (Bacillus subtilis DSM-10): 0.1 µg/mL (≈ 0.109 µM)
- MIC [17]: 0.25 µg/mL (≈ 0.272 µM)
- MIC [18]: 0.1 to 0.2 µg/mL (≈ 0.109 to 0.217 µM)
- MIC [19]: 0.25 µg/mL (≈ 0.272 µM)
- MIC [20]: 0.1 µg/mL (≈ 0.109 µM)
- MIC (Pichia anomala DSM-6766): > 64 µg/mL
